Measurements taken from patent US9586931B2 (Merck Sharp & Dohme Corp., priority 2012, dated 2017).

target: T1, recombinant human GST-Syk (Homo sapiens, UniProt P43405); assay: Homogeneous Time-Resolved Fluorescence (HTRF) assay for the recombinant human Syk enzyme; assay type: biochemical; conditions: recombinant human GST-Syk 5 pM, ATP 25 μM, 10-dose titration 10 μM to 0.508 nM; read-out: rhSYK Activity IC50
T1 construct: purchased Carna Biosciences 08-176
Summary of the method: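 Detection used time-resolved fluorescence 30 min after adding a quench mix (40 mM EDTA, 15 mM Tris pH 7.5, 0.01% Tween 20) containing 2 nM Europium anti-pTyr antibody and 70 nM streptavidin-APC. This followed 45 min of room-temperature peptide phosphorylation by recombinant GST-tagged human Syk.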

| Compound | IC50 [µM] |
| --- | --- |
| Cc1cc(Nc2nccc(C(F)F)n2)cc(-c2cn(C3CCCCC3O)nn2)c1 (stereo not drawn) [Example 4.35, 2-[4-(3-{[4-(difluoromethyl)pyrimidin-2-yl]amino}-5-methylphenyl)-1H-1,2,3-triazol-1-yl]cyclohexanol] | 0.011 |
| Cc1cc(Nc2nccc(C(F)(F)F)n2)cc(-c2cn(C3CCC(C(=O)OC(C)(C)C)CC3)nn2)c1 (stereo not drawn) [Example 9.4, tert-butyl 4-[4-(3-methyl-5-{[4-(trifluoromethyl)-pyrimidin-2-yl]amino}-phenyl)-1H-1,2,3-triazol-1-yl]cyclohexane-carboxylate] | 7.22 |
| Cc1cc(Nc2nccc(C(F)(F)F)n2)cc(-c2cn(Cc3noc(C)n3)nn2)c1 [Example 5.69, N-(3-methyl-5-{1-[(5-methyl-1,2,4-oxadiazol-3-yl)methyl]-1H-1,2,3-triazol-4-yl}phenyl)-4-(trifluoromethyl)pyrimidin-2-amine] | 0.0572 |
| Cc1cc(Nc2cc(C(F)(F)F)ccn2)nc(-c2cn(CCc3cn[nH]c3)nn2)c1 [Example 5.105, 4-methyl-6-{1-[2-(1H-pyrazol-4-yl)ethyl]-1H-1,2,3-triazol-4-yl}-N-[4-(trifluoromethyl)pyridin-2-yl]pyridin-2-amine] | 0.0021 |
| Cc1cc(Nc2cc(C(F)(F)F)ccn2)nc(-c2cn(C(C)C(=O)NCCc3c[nH]c4ccc(OCc5ccccc5)cc34)nn2)c1 (stereo not drawn) [Example 1.30, N-{2-[5-(benzyloxy)-1H-indol-3-yl]ethyl}-2-[4-(4-methyl-6-{[4-(trifluoromethyl)pyridin-2-yl]amino}pyridin-2-yl)-1H-1,2,3-triazol-1-yl]propanamide] | 1.62 |
| Cc1cc(Nc2cc(C(F)(F)F)ccn2)nc(-c2cn(CC3(O)CCOC3)nn2)c1 (racemic) [Example 5.13, 3-{[4-(4-methyl-6-{[4-(trifluoromethyl)pyridin-2-yl]amino}pyridin-2-yl)-1H-1,2,3-triazol-1-yl]methyl}tetrahydrofuran-3-ol] | 0.0117 |
| Cc1cc(Nc2cc(C(F)(F)F)ccn2)nc(-c2cn(C3CCC(C(=O)O)c4ccccc43)nn2)c1 (stereo not drawn) [Example 3.19, 4-[4-(4-methyl-6-{[4-(trifluoromethyl)pyridin-2-yl]amino}pyridin-2-yl)-1H-1,2,3-triazol-1-yl]-1,2,3,4-tetrahydronaphthalene-1-carboxylic acid] | 0.016 |
| Cc1cc(Nc2nccc(C(F)F)n2)cc(-c2cn(C3CCCC(C)(O)C3O)nn2)c1 (single isomer, unassigned) [Example 29.1, 3-(4-(3-((4-(Difluoromethyl)pyrimidin-2-yl)amino)-5-methylphenyl)-1H-1,2,3-triazol-1-yl)-1-methylcyclohexane-1,2-diol] | 0.0197 |
| Cc1cc(Nc2nccc(C(F)(F)F)n2)cc(-c2cn(CCC(=O)O)nn2)c1 [Example 5.60, 3-[4-(3-methyl-5-{[4-(trifluoromethyl)pyrimidin-2-yl]amino}phenyl)-1H-1,2,3-triazol-1-yl]propanoic acid] | 0.0418 |
| Cc1cc(Nc2cc(C(F)(F)F)ccn2)nc(-c2cn(C(C)C(=O)NCCc3ccc(Oc4ccccc4)cc3)nn2)c1 (stereo not drawn) [Example 1.46, 2-[4-(4-methyl-6-{[4-(trifluoromethyl)pyridin-2-yl]amino}pyridin-2-yl)-1H-1,2,3-triazol-1-yl]-N-[2-(4-phenoxyphenyl)ethyl]propanamide] | 1.4 |
| COc1nc(Nc2cc(C)cc(-c3cn(CC(C)(O)C(C)(C)O)nn3)c2)ncc1F (stereo not drawn) [Example 21.33, 1-(4-{3-[(5-fluoro-4-methoxypyrimidin-2-yl)amino]-5-methylphenyl}-1H-1,2,3-triazol-1-yl)-2,3-dimethylbutane-2,3-diol] | 0.0663 |
| Cc1cc(Nc2cc(C(F)(F)F)ccn2)nc(-c2cn(CC3(O)CCS(=O)(=O)CC3)nn2)c1 [Example 4.29, 4-{[4-(4-methyl-6-{[4-(trifluoromethyl)pyridin-2-yl]amino}pyridin-2-yl)-1H-1,2,3-triazol-1-yl]methyl}tetrahydro-2H-thiopyran-4-ol 1,1-dioxide] | 0.0082 |
| Cc1cc(Nc2cc(C(F)(F)F)ccn2)nc(-c2cn(C[C@H]3CCC(=O)N3)nn2)c1 [Example 5.3, (5R)-5-{[4-(4-methyl-6-{[4-(trifluoromethyl)pyridin-2-yl]amino}pyridin-2-yl)-1H-1,2,3-triazol-1-yl]methyl}pyrrolidin-2-one] | 0.129 |
| Cc1cc(Nc2nccc(C(F)(F)F)n2)cc(-c2cn(CC(=O)O)nn2)c1 [Example 5.58, [4-(3-methyl-5-{[4-(trifluoromethyl)pyrimidin-2-yl]amino}phenyl)-1H-1,2,3-triazol-1-yl]acetic acid] | 0.0613 |
| Cc1cc(Nc2nccc(C(F)(F)F)n2)cc(-n2cc(C3(O)CCC(C(N)=O)C(C)(C)C3)nn2)c1 (stereo not drawn) [Example 1.58, 4-hydroxy-2,2-dimethyl-4-[1-(3-methyl-5-{[4-(trifluoromethyl)pyrimidin-2-yl]amino}phenyl)-1H-1,2,3-triazol-4-yl]cyclohexanecarboxamide] | 0.0297 |
| Cc1cc(Nc2nccc(C(F)F)n2)cc(-c2cn(CC(C)(O)CC#N)nn2)c1 (single isomer, unassigned) [Example 27.2, 4-(4-(3-((4-(Difluoromethyl)pyrimidin-2-yl)amino)-5-methylphenyl)-1H-1,2,3-triazol-1-yl)-3-hydroxy-3-methylbutanenitrile] | 0.0211 |
| Cc1cc(Nc2nccc(C(F)F)n2)cc(-c2cn(C3CCCC(O)C3O)nn2)c1 (single isomer, unassigned) [Example 25.2, 3-(4-(3-((4-(difluoromethyl)pyrimidin-2-yl)amino)-5-methylphenyl)-1H-1,2,3-triazol-1-yl)cyclohexane-1,2-diol] | 0.0073 |
| Cc1cc(Nc2cc(C(F)(F)F)ccn2)nc(-c2cn(CC3(O)CCC3)nn2)c1 [Example 4.27, 1-{[4-(4-methyl-6-{[4-(trifluoromethyl)pyridin-2-yl]amino}pyridin-2-yl)-1H-1,2,3-triazol-1-yl]methyl}cyclobutanol] | 0.002 |
| COc1ccnc(Nc2cc(C)cc(-c3cn(CC(C)(O)C(C)(C)O)nn3)c2)n1 (stereo not drawn) [Example 21.23, 1-(4-{3-[(4-methoxypyrimidin-2-yl)amino]-5-methylphenyl}-1H-1,2,3-triazol-1-yl)-2,3-dimethylbutane-2,3-diol] | 0.0279 |
| Cc1cc(Nc2cc(C(F)(F)F)ccn2)nc(-c2cn(C(C)C(=O)N3CCc4cc(O)c(O)cc4C(c4ccccc4)C3)nn2)c1 (stereo not drawn) [Example 1.54, 3-{2-[4-(4-methyl-6-{[4-(trifluoromethyl)pyridin-2-yl]amino}pyridin-2-yl)-1H-1,2,3-triazol-1-yl]propanoyl}-1-phenyl-2,3,4,5-tetrahydro-1H-3-benzazepine-7,8-diol] | 0.134 |
| Cc1cc(Nc2cc(C(F)(F)F)ccn2)nc(-c2cn(CC3CNC(=O)O3)nn2)c1 (racemic) [Example 5.84, 5-{[4-(4-methyl-6-{[4-(trifluoromethyl)pyridin-2-yl]amino}pyridin-2-yl)-1H-1,2,3-triazol-1-yl]methyl}-1,3-oxazolidin-2-one] | 0.0021 |
| Cc1cc(Nc2cc(C(F)(F)F)ccn2)nc(-c2cn(CC(O)C(=O)O)nn2)c1 (racemic) [Example 5.39, 2-hydroxy-3-[4-(4-methyl-6-{[4-(trifluoromethyl)pyridin-2-yl]amino}pyridin-2-yl)-1H-1,2,3-triazol-1-yl]propanoic acid] | 0.0449 |
| COC(=O)CNC(=O)[C@@H](C)n1cc(-c2cc(C)cc(Nc3cc(C(F)(F)F)ccn3)n2)nn1 [Example 1.57, methyl N-{(2R)-2-[4-(4-methyl-6-{[4-(trifluoromethyl)pyridin-2-yl]amino}pyridin-2-yl)-1H-1,2,3-triazol-1-yl]propanoyl}glycinate] | 0.0928 |
| CC(O)(CO)Cn1cc(-c2cccc(Nc3nccc(C(F)(F)F)n3)c2)nn1 (single isomer, unassigned) [Example 21.5, 2-methyl-3-[4-(3-{[4-(trifluoromethyl)pyrimidin-2-yl]amino}phenyl)-1H-1,2,3-triazol-1-yl]propane-1,2-diol] | 0.047 |
| Cc1cc(Nc2cc(C(F)(F)F)ccn2)nc(-c2cn(C3CCNC(=O)CC3)nn2)c1 (racemic) [Example 11.3, 5-[4-(4-methyl-6-{[4-(trifluoromethyl)pyridin-2-yl]amino}pyridin-2-yl)-1H-1,2,3-triazol-1-yl]azepan-2-one] | 0.118 |
| Cc1cc(Nc2cc(F)ccn2)nc(-c2cn(C(C)c3ccc(C(=O)O)cc3)nn2)c1 (stereo not drawn) [Example 2.2, 4-[1-(4-{6-[(4-fluoropyridin-2-yl)amino]-4-methylpyridin-2-yl}-1H-1,2,3-triazol-1-yl)ethyl]benzoic acid] | 0.00888 |
| Cc1cc(Nc2cc(OCCO)ccn2)nc(-c2cn(C(C)c3ccc(C(=O)O)cc3)nn2)c1 (stereo not drawn) [Example 2.4, 4-{1-[4-(6-{[4-(2-hydroxyethoxy)pyridin-2-yl]amino}-4-methylpyridin-2-yl)-1H-1,2,3-triazol-1-yl]ethyl}benzoic acid] | 0.0281 |
| Cc1cc(Nc2nccc(C(F)F)n2)cc(-c2cn(CC3OC(=O)NC34CC4)nn2)c1 (single isomer, unassigned) [Example 7.18, 7-((4-(3-((4-(difluoromethyl)pyrimidin-2-yl)amino)-5-methylphenyl)-1H-1,2,3-triazol-1-yl)methyl)-6-oxa-4-azaspiro[2.4]heptan-5-one] | 0.0117 |
| Cc1cc(Nc2cc(C(F)(F)F)ccn2)nc(-c2cn(C[C@H](O)C(N)=O)nn2)c1 [Example 1.13, (2S)-2-hydroxy-3-[4-(4-methyl-6-{[4-(trifluoromethyl)pyridin-2-yl]amino}pyridin-2-yl)-1H-1,2,3-triazol-1-yl]propanamide] | 0.0034 |
| Cc1cc(Nc2nccc(C(F)(F)F)n2)cc(-c2cn(C(C)C(=O)O)nn2)c1 (racemic) [Example 5.64, 2-[4-(3-methyl-5-{[4-(trifluoromethyl)pyrimidin-2-yl]amino}phenyl)-1H-1,2,3-triazol-1-yl]propanoic acid] | 0.0414 |
